# Source: US11660054B2, “Medical diagnostic and treatment systems and their methods of use” (Biogen MA Inc., priority 2016, dated 2023)
# System: β-amyloid neuritic plaque
# Test: Radiometer cap detection of head radiation signals after IV amyloid tracer, concurrent PET
# Format: in vivo, human
# Procedure: Tests were conducted using a series of radiometers positioned around subjects heads and a standard PET camera using the amyloid tracer ^18F-fluorbetapir in subjects with probable Alzheimer's disease (AD subjects) and healthy control volunteers (HC). ^18F-fluorbetapir is a radioactive diagnostic agent for positron emission tomography (PET) imaging of the brain to estimate β-amyloid neuritic plaque density in adult patients with cognitive impairment who are being evaluated for AD. PET imaging targeting β-amyloid neuritic plaque deposition has already begun playing a role in identifying individuals very early in the course of AD and monitoring progression of the disease over the course of the treatment with investigational therapeutics.
# During testing, ^18F-fluorbetpir was administered intravenously as a bolus injection followed by a saline flush. […] Each subject received a single injection of the radioligand with a dose of no more than 10 mCi in a maximum volume of 10 mL.
# The device included a cap fitted with up to 5 detectors at various 10-20 EEG positions which was placed on the subject's head. The subjects were asked to avoid any movements of the head and to remain immobilized as much as possible. Additional detectors were secured to one ankle and the chin to obtain an indirect measure of the activity in the blood, and to monitor activity in the head respectively. […] Detector specific count rates and total counts were measured continuously for up to 3 hours. The count rate and total counts were compared in the AD subjects and HC subjects to extrapolate qualitative and quantitative pattern differences. […]
# For processing purposes, detected radiation signals were decay corrected to the time of injection. The counts were recorded in 4 second intervals, which were then median filtered using a 2 minute window. […]
# To quantify this, a constrained bi-exponential model was fit to the 10-65 minute period of each of the detectors, as well as the sum of the brain signals (excluding the chin, ankle and tip top detectors). […]
compound,measurement,setting,value
CNc1ccc(/C=C/c2ccc(OCCOCCOCCF)nc2)cc1 [^18F-fluorbetapir],ankle detector signal after injection,"ankle detector, all subjects, IV bolus",steadily climbed
same,"alpha phase of bi-exponential fit, healthy versus AD subjects","bi-exponential fit of 10-65 minute period, alpha phase limited to 5-30 min half-life",faster alpha phase
same,initial washout of signal in healthy subjects versus AD subjects,"head detectors, healthy subjects",faster initial washout
